The record followed here is ChEMBL document CHEMBL5465560, “Selectivity Literature for EUbOPEN Chemogenomic Library” (2024).

For experiment [1], the target named is T1, 3-phosphoinositide-dependent protein kinase 1 (Homo sapiens) (UniProt O15530).
T1 sequence (whole entry): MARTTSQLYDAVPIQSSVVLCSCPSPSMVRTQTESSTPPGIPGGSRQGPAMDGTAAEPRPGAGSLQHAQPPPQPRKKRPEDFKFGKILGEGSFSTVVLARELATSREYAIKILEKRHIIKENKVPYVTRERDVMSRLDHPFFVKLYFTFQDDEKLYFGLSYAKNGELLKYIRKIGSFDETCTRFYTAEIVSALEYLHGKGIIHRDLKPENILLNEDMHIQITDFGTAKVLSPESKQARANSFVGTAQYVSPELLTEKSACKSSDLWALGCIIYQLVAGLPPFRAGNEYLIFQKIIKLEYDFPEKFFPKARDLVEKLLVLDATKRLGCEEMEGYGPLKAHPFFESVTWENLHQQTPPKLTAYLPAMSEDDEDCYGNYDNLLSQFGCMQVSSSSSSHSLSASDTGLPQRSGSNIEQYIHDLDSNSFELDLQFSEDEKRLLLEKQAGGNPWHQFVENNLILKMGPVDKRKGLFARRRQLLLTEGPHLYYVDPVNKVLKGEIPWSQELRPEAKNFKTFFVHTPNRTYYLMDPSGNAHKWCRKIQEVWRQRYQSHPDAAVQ
The note with it: at 10 µM.

In experiment [2] the target is Activin receptor type-2B (Homo sapiens) (UniProt Q13705). The experiment in a line: Selectivity interaction (KinomeScan (DiscoverX)) EUB0000666a ACVR2B. As to conditions: at 10 µM.
Experiment [3] deals with T2, Serine/threonine-protein kinase Chk1 (Homo sapiens) (UniProt O14757).
T2 sequence (whole entry): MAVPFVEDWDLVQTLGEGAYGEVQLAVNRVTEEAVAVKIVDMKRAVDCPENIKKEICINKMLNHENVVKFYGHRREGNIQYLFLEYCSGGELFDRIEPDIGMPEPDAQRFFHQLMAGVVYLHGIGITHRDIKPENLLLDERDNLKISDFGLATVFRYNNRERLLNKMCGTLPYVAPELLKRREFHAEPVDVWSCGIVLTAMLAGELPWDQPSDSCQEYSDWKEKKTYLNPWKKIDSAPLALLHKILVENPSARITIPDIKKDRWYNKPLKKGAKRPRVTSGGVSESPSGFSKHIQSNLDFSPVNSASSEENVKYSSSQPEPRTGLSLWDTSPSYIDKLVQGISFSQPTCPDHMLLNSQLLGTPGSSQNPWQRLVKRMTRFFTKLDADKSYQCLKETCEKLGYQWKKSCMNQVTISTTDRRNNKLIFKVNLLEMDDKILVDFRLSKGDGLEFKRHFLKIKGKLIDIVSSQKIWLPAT
The experiment in a line: Selectivity interaction (KinomeScan (DiscoverX)) EUB0000655a CHEK1. The note with it: at 10 µM.

In experiment [4] the target is T3, Inhibitor of nuclear factor kappa-B kinase subunit beta (Homo sapiens) (UniProt O14920).
T3 sequence (whole entry): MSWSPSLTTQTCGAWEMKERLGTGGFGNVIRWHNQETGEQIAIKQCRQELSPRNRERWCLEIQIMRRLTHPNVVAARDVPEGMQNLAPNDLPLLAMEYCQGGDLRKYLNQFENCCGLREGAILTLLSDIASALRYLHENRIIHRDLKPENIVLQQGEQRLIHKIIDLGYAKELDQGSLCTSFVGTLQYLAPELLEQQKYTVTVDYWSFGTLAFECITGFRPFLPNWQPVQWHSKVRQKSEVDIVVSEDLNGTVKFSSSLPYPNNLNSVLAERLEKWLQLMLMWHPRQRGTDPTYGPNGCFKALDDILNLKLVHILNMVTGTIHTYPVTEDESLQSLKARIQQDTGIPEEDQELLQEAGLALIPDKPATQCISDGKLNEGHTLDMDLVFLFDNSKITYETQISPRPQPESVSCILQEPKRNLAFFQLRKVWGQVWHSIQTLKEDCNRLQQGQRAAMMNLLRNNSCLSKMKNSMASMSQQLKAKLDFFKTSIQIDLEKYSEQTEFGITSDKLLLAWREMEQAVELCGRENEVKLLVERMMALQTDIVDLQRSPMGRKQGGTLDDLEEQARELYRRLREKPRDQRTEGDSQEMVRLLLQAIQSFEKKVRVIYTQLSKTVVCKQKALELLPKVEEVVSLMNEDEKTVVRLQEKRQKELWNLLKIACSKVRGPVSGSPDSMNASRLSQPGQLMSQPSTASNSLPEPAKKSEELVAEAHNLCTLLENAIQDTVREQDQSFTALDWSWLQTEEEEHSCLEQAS
The experiment in a line: Selectivity interaction (KinomeScan (DiscoverX)) EUB0001079a IKBKB. As to conditions: at 1 µM.

The target of experiment [5] is Mitogen-activated protein kinase 10 (Homo sapiens, UniProt P53779). The experiment in a line: Selectivity interaction (KinomeScan (DiscoverX)) EUB0000092b MAPK10. As to conditions: at 10 µM.
Experiment [6] addresses Glycogen synthase kinase-3 beta (Homo sapiens, UniProt P49841). The experiment in a line: Selectivity interaction (KinomeScan (DiscoverX)) EUB0000092b GSK3B. As to conditions: at 10 µM.
Experiment [7] concerns the target Ribosomal protein S6 kinase alpha-5 (Homo sapiens) (UniProt O75582). Description: Selectivity interaction (KinomeScan (DiscoverX)) EUB0001868a RPS6KA5. The note with it: at 1 µM.
For experiment [8], the target named is T4, Serine/threonine-protein kinase D3 (Homo sapiens) (UniProt O94806).
T4 sequence (whole entry): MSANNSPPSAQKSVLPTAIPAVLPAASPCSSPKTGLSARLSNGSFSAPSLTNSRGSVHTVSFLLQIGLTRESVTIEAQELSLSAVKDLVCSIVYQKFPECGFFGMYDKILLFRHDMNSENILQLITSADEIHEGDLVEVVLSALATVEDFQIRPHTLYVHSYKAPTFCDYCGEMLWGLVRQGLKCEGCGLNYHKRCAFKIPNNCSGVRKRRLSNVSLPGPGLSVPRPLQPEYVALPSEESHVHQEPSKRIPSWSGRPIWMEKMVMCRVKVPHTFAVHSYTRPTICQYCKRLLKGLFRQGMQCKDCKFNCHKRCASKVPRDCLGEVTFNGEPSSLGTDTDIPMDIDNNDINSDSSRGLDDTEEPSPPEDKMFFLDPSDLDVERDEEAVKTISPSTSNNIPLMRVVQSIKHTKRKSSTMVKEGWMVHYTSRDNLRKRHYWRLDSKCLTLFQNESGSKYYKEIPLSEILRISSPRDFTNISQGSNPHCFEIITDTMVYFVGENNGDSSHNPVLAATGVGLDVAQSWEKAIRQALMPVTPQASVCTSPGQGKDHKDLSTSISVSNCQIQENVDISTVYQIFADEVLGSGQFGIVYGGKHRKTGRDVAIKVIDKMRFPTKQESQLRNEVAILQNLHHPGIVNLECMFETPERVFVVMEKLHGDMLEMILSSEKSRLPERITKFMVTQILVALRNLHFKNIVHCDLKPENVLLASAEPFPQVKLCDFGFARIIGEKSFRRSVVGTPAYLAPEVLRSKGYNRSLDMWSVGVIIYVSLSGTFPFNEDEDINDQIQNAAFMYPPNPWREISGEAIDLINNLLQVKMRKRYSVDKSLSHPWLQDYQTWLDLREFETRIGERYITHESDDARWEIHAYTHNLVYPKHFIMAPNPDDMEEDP
Description: Selectivity interaction (KinomeScan (DiscoverX)) EUB0000618a PRKD3. The note with it: at 10 µM.

Chain of Glycogen synthase kinase-3 beta (P49841 whole entry, looked up): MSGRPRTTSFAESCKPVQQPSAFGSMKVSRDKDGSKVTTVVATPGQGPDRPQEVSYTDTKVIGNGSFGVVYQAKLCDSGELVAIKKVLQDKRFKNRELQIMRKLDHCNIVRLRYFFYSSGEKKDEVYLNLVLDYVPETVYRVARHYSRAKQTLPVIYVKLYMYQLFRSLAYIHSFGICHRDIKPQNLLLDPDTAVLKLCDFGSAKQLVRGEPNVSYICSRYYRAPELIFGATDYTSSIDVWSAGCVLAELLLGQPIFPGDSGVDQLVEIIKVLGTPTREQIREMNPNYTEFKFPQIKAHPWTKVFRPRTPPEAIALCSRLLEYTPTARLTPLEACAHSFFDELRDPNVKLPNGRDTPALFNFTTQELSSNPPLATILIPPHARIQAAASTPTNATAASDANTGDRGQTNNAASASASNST
Chain of Activin receptor type-2B (Homo sapiens) (Q13705 whole entry): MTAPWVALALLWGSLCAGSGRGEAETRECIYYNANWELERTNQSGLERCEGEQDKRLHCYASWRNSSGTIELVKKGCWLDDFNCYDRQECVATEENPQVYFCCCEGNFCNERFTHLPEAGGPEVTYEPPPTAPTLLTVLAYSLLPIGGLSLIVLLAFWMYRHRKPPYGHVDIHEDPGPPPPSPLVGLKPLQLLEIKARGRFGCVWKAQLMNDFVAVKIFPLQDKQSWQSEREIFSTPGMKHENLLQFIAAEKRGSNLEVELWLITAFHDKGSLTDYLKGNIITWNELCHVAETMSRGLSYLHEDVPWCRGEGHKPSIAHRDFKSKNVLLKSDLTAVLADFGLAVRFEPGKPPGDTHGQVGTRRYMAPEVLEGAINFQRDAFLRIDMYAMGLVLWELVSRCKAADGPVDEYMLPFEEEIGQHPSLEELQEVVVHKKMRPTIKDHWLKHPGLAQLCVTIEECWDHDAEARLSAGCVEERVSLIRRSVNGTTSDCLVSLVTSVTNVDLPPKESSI
Chain of Mitogen-activated protein kinase 10 (P53779 whole entry): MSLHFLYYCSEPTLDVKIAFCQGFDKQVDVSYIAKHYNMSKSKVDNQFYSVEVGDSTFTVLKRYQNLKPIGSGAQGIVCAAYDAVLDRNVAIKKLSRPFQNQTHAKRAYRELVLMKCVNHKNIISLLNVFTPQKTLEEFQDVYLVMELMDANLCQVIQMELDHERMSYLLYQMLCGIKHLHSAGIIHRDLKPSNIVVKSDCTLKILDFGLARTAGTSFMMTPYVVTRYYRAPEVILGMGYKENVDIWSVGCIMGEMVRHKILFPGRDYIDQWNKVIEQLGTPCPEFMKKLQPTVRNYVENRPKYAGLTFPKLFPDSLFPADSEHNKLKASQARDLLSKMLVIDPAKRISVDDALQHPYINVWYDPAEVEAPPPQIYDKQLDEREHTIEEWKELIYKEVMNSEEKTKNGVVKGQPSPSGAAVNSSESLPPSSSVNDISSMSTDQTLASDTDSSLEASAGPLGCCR
Chain of Ribosomal protein S6 kinase alpha-5 (Homo sapiens) (O75582 whole entry, looked up): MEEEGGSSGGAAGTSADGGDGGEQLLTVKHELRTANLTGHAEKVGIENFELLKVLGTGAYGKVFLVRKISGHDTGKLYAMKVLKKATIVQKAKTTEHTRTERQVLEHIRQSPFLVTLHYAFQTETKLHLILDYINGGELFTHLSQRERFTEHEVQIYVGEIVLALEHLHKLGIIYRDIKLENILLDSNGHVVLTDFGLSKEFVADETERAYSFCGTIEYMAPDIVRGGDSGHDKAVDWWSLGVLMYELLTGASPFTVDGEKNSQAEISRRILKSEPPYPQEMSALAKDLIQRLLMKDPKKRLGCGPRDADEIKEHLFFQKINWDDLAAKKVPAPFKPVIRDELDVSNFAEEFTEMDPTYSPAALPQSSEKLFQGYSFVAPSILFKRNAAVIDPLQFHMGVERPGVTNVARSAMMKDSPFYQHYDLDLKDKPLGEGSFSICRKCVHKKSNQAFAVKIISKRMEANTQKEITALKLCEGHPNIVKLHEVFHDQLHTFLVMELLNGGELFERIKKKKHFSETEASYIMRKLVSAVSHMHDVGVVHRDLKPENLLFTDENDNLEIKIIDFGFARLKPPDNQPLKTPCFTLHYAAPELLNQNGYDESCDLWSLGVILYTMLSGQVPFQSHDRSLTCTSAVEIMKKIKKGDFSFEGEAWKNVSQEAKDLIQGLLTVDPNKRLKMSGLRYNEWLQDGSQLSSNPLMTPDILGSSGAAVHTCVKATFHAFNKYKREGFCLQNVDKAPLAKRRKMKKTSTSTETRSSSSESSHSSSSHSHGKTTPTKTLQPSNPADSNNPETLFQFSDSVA

Take `Cc1cc([C@@H](C)Nc2ccccc2C(=O)O)c2nc(N3CCOCC3)cc(=O)n2c1` [AZD-6482]: the % of control in experiment [1] amounted to 100%.

In turn, `O=C(NOC[C@H](O)CO)c1ccc(F)c(F)c1Nc1ccc(I)cc1F` registered a % of control in experiment [2] of 66%.

`CN(C)CCOc1ccc(-c2nc(-c3ccncc3)c(-c3ccc4c(c3)CC/C4=N\O)[nH]2)cc1` returned a % of control in experiment [3] of 80%.

In turn, `Nc1cnc(N2CCc3cc(S(=O)(=O)Nc4c(F)cc(Cl)cc4F)cc(N4CCCC4=O)c32)nc1` [TP-020n] showed a % of control in experiment [4] of 96%.

Take `CCC(=O)N1CCN(c2ccc(-n3c(=O)ccc4cnc5ccc(-c6cnc7ccccc7c6)cc5c43)cc2C(F)(F)F)CC1`: the % of control in experiment [5] is 31%; in experiment [6], 100%.

In experiment [7], `Cc1cc(-c2ccnc(Nc3cnn(C)c3)n2)ccc1CNC(=O)N1CC(OC(C)C)C1` registered a % of control of 42%.

Take `O[C@H]1CC[C@H](Nc2ncc3nc(Nc4c(F)cc(F)cc4F)n([C@H]4CCOC4)c3n2)CC1`: the % of control in experiment [8] is 84%.
